Experimental data as given in US20230272370A1, “GENETICALLY ENCODED YEATS DOMAIN PROBE AND APPLICATIONS THEREOF” (THE UNIVERSITY OF HONG KONG, priority 2020, published 2023).
No end group written: not given here.

How the values were obtained:
CobB = target: T1, CobB (Escherichia coli, UniProt P75960); experiment: ESI-MS of V3 expressed in E. coli with NAM (CobB deacylation); type: cell-based
T1 construct: endogenous in cells; host or cells: E. coli DH10B
Method: Since nicotinamide (NAM) is a known inhibitor of the sirtuin family of enzymes, I expressed V3 in the presence of 20 mM NAM.
However, the V3 protein expression level was severely attenuated in the presence of 20 mM NAM (data not shown). Therefore, I attempted several lower NAM concentrations and assessed the purified V3 protein using ESI-MS. […] Thus, 10 mM NAM was added to the culture medium for the subsequent expression of V3 in E. coli.
DH10B cells harboring pEVOL-KfuRS and pBad-V3-2 plasmid were cultured in LB plus corresponding antibiotics. Protein expression was induced by adding 0.2% arabinose, 10 mM NAM, and 1 mM Kfu when O.D. 600 reached 0.4. After expression at 37° C. for 20 h, cells were harvested and washed with PBS. Protein purification was the same as sfGFP150Kfu except that 10 mM NAM was added to lysis buffer to prevent CobB deacylation. V3C was expressed and purified the same as V3.

AF9 protein = experiment: FRAP of AF9-sfGFP in HEK 293T cells (chromatin binding of AF9); type: cell-based, human
Description: In one embodiment, fluorescence recovery after photobleaching (FRAP) may be used to analyze diffusion and binding of proteins in living cells. It has also been used to assess the cellular efficiency of bromodomain inhibitors in living cells.
In the FRAP experiments, the protein of interest is genetically tagged with a fluorescent protein (e.g., GFP) and expressed inside the cell. Then a portion of the fluorescent-tagged protein are photobleached by an intense laser pulse, and the fluorescence recovery of that photobleached region, which is caused by the migration of fluorescent-tagged proteins back into the bleached area, is monitored over time (FIG. 27a). A fluorescence recovery curve can be generated by plotting the fluorescence intensity with time, and the half time (t1/2), which is the time that the fluorescence intensity takes to recover to half, could also be calculated (FIG. 27b).
Since AF9 protein was reported to associate with chromatin by its YEATS domain, we reasoned that the V3 inhibitor would reduce the binding of AF9 to chromatin and increase its mobility. To test this hypothesis, I fused sfGFP to the C-terminal of AF9 protein and replaced the C-terminal sfGFP of V3-NLS and V3C-NLS to a red fluorescence mCherry protein to avoid fluorescence overlap in FRAP experiments. […]
HEK 293T cells were seeded in 3.5 cm confocal dish at a density of 4-6×10^5 cells per well in 2 mL complete growth medium and let them reach 60-80% confluency at the time of transfection. […] An argon laser (488 nm) was used for photobleaching and fluorescence imaging of sfGFP. The detector was set to detect fluorescence between 500 and 550 nm. […] Fluorescence recovery of sfGFP was monitored by a time series imaging.
The average fluorescence intensity was measured for three regions at each imaging time point, a bleached region (Fbl), a non-bleached reference region (Fref) to correct for the FRAP curve for photofading caused by imaging, the location of reference region should be as far apart as possible from the bleached region. […]

AF9 YEATS domain (human) = AF9 YEATS domain (human) (UniProt P42568); experiment: ITC, 25° C., 300 µM V3 titrated into 30 µM AF9 YEATS domain
AF9 YEATS domain = target: T2, AF9 YEATS domain (Homo sapiens, UniProt P42568); experiment: Isothermal titration calorimetry (ITC) with AF9 YEATS domain; type: binding; details: 25° C.
T2 sequence (P42568 1-138 limits assumed): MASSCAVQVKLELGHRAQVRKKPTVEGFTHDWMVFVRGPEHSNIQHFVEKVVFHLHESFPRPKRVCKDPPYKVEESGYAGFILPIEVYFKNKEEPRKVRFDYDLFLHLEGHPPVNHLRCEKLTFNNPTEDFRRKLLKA
Method: Next, I tested whether V3 protein could bind to the YEATS domains and act as a YEATS domain inhibitor. Isothermal titration calorimetry (ITC) was performed to determine the dissociation constant (Kd) between V3 and all four YEATS domain-containing proteins in humans (i.e. AF9, ENL, Gas41, and YEATS2).
ITC was first performed with V3 protein and the AF9 YEATS domain.
Experiments were conducted at 25° C. on a MicroCal PEAQ-ITC titration calorimeter (MicroCal). The buffer for the titration is (150 mM NaCl, 50 mM HEPES, 1 mM TCEP, pH 7.5). Proteins were dialyzed to the titration buffer for overnight before the experiment. The reaction cell contained 200 μL of 30 μM YEATS domain proteins, which was titrated with 300 μM V3 or V3C proteins (10-fold higher than the YEATS domain protein concentration used). The titration contained 20 injections, first 0.5 μL, and all subsequent injections of 2 μL. The binding isotherm was fit with MicroCal PEAQ-ITC analysis software, using a single set of independent sites to determine the thermodynamic dissociation constants and stoichiometry.

V3-GAL4/AF9-VP64 complex = target: T3, V3-GAL4/AF9-VP64 complex (Homo sapiens, UniProt P42568); experiment: Luciferase-based two-hybrid assay (V3-GAL4 bait, AF9-VP64 prey); type: cell-based; details: V3-GAL4 bait with AF9-VP64 prey, normalized to V3C-GAL4
T3 construct: expressed in transfected cells; host or cells: HEK 293T
T3 sequence (P42568 1-568): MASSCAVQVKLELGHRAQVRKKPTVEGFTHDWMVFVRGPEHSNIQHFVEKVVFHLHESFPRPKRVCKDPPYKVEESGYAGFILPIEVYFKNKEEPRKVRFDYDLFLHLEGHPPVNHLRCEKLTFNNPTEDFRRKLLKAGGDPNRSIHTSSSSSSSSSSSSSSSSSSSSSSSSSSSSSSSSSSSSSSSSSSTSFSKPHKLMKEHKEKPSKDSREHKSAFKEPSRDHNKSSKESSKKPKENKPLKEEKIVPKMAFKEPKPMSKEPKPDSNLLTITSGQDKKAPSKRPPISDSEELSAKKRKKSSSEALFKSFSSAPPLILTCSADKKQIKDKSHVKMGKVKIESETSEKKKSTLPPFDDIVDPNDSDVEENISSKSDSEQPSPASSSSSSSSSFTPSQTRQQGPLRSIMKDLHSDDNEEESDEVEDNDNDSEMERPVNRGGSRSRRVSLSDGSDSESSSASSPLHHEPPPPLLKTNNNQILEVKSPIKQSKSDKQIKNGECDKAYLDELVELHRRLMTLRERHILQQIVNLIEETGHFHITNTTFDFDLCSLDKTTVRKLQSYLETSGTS
Method: FIG. 34A-34D Luciferase-based two hybrid assay. (A) Schematic of the Luciferase-based two hybrid assay. (B) Schematic showing V3-GAL4 and V3C-GAL4 fusion proteins. (C) Immunoblotting analysis the expression of V3-GAL4 and V3C-GAL4 in the presence or absence of 1 mM Kfu in HEK 293T cells. (D) Relative luciferase signal of V3-GAL4 or V3C-GAL4 ‘bait’ in the presence of AF9-VP64 ‘prey’ protein, and with the addition of different concentrations of iMLLT. The luminescence of all the samples was normalized to the V3C-GAL4 sample. Error bars represent SEM from three biological replicates.
To solve the problems in current cell-based methods, as well as develop a robust cell-based technology for the in vivo screening and validation of YEATS domain inhibitors. We sought out to take advantage of the well-developed luciferase-based two-hybrid assay. In the two-hybrid assay, the genetically encoded YEATS domain probe was fused with a GAL4 DNA binding domain and served as ‘bait’, while a transcription activation domain (VP64) was linked to AF9 protein and acted as ‘prey’ (FIG. 34a, b, c). […]

T1 sequence (P75960 whole entry): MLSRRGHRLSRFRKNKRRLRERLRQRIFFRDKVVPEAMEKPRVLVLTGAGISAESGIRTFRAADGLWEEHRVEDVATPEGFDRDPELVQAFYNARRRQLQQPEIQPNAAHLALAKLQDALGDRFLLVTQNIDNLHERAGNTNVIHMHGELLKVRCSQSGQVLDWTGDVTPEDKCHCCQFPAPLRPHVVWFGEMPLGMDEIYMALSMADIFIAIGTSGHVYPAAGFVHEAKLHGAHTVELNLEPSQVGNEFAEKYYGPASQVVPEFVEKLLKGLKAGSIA

## NC(=O)c1cccnc1 [NAM, nicotinamide]
CobB; 10 mM NAM
  inhibition of the deacylation activity of CobB: sufficient to inhibit
CobB; 20 mM NAM
  inhibition of the deacylation activity of CobB: completely inhibits

## O=C(CCCCCCC(=O)Nc1ccccc1)NO [SAHA, suberoylanilide hydroxamic acid]
AF9 protein; SAHA 2.5 μM for 18 hours before FRAP, untreated 2.5±0.1 seconds
  half recovery time (t1/2) of AF9-sfGFP: 4.7 ± 0.2 s
AF9 protein; SAHA-treated cells, untreated 90%
  final fluorescence (fluorescence at plateau), of the initial intensity: 75%

## V3 protein (genetically encoded YEATS domain inhibitor V3; histone H3 (4-13) with 2-furancarbonyl lysine at K9 fused to sfGFP and 6×His tag) (designed binder)
AF9 YEATS domain (human)
  Kd: 2350 nM

## V3-NLS (mCherry): V3-NLS with C-terminal sfGFP replaced by red fluorescence mCherry protein (KQTARKSTGGHHHHHHKRPAATKKAGQAKKKKL; also: C-terminal mCherry fusion (carrier not in chain))
AF9 protein; inhibitor co-expressed, 2.5 μM SAHA added to all groups, no inhibitor control 4.7±0.2 s
  half recovery time (t1/2) of AF9-sfGFP: 3.1 ± 0.2 s

## V3C: control inhibitor: H3 (4-13) with a normal lysine at the H3 K9 site fused to N-terminal of sfGFP (KQTARKSTGG; also: C-terminus fused to sfGFP)
AF9 YEATS domain
  dissociation constant (Kd): no detectable binding

B1: V3-GAL4: genetically encoded YEATS domain probe fused with a GAL4 DNA binding domain, 'bait' (protein)
chain: KQTARKSTGGMKLLSSIEQACDICRLKKLKCSKEKPKCAKCLKNNWECRYSPKTKRSPLTRAHLTEVESRLERLEQLFLLIFPREDLDMILKMDSLQDIKALLTGLFVQDNVNKDAVTDRLASVETDMPLTLRQHRISATSSSEESSNKGQRQLTVS
V3-GAL4/AF9-VP64 complex
  activation level of luciferase: around 20 folds
